Measured values from publication PMC7112222, “Investigation of pyrimidine nucleoside analogues as chemical probes to assess compound effects on the proliferation of Trypanosoma cruzi intracellular parasites” (PLoS Neglected Tropical Diseases, 2020).
Read-outs that look alike come from different tables or passages of the source.

System: T. cruzi intracellular amastigotes
Test: Image-based assay of the number of T. cruzi infected cells (intracellular amastigotes in 3T3 host cells)
Assay type: cell-based, Trypanosoma cruzi
Conditions: for IC50: highest test concentration 183 μM
Procedure: Parasites and host cells were maintained as outlined previously. Briefly, host 3T3 fibroblasts (ATCC, CCL-92) were grown in RPMI medium (Thermo Fisher Scientific, USA) with no phenol red, supplemented with 10% FBS (Thermo Fisher Scientific, USA) and incubated at 37°C in 5% CO2. Host cells were harvested at 70% confluency and were split every 2–3 days in 175 cm^2 flasks. 3T3 cells were cultured up to passage 7 as contact inhibition was reduced or lost at higher passages. Prior to infection with T. cruzi trypomastigotes, host cells were seeded at 1.2 x 10^6 cells in 75 cm^2 or 4 x 10^5 cells in 25 cm^2 flasks and grown for 24 hours before parasite addition. Parasites were added at a multiplicity of infection (MOI) of 10:1 and incubated for 24 hours before non-infected trypomastigotes were washed off the host cell bed with PBS supplemented with Ca^2+ and Mg^2+ (Thermo Fisher Scientific, USA). Incubation was continued for a further 3 days, until tissue culture trypomastigotes began to egress from host cells. Egressed parasites were used for assays or to continue the infective life cycle in vitro.
The activity of the nucleoside analogues against T. cruzi intracellular amastigotes following 24, 48 hours exposure and compound wash off, was determined using image-based techniques as previously described. Briefly, 14-point serial dilutions of the compounds in 100% DMSO were prepared and then further diluted in sterile water at a ratio of 1:21 compound: water. Five microliters of the diluted compounds were added to wells of T. cruzi infected host cells, using a MiniTrak compound handling device (Perkin Elmer, USA) with final concentrations in the plate ranging from 183 μM to 4.6 x 10^−4 μM. All experiments were performed with two separate biological replicates.
IC50 values for inhibitory activity of both the nucleoside analogues tested as DNA probes and known inhibitors tested to determine their effect on replication of T. cruzi were calculated in GraphPad Prism 5, using sigmoidal dose response with variable slope. […] The p-value for difference in the % activity at Emax concentrations for compounds with known activity (EdU identified parasites, compared to Hoechst identified parasites) against T. cruzi was determined using GraphPad Prism 5, using an unpaired student’s t-test. […] The Emax for each compound was at least two data points in from the beginning of the plateau of activity in the IC50 curve, as previously described.

In the case of C#Cc1cn([C@H]2C[C@H](O)[C@@H](CO)O2)c(=O)[nH]c1=O [EdU, 5-ethynyl-2′-deoxy-uridine], the “SI (selectivity index to T. cruzi intracellular amastigotes in relation to HEK293 cells)” value (48 hours exposure) is reported as 17, the inhibition at 0.018 µM (Trypanosoma cruzi, 48 h, 0.018 μM, 48 hours, read-out: inhibition of T. cruzi growth) is reported as 63 ± 19% and the inhibition at 0.037 µM (Trypanosoma cruzi, 48 h, 0.037 μM, 48 hours, read-out: inhibition of T. cruzi growth) is reported as 51 ± 13%. It also gave an IC50 (Trypanosoma cruzi, 24 hours exposure, read-out: T. cruzi 24 IC50 value) of 73 ± 49 nM, an Emax (Trypanosoma cruzi, 24 hours exposure, read-out: T. cruzi 24 relative Emax (in brackets) (converted)) of 83% and an IC50 (Trypanosoma cruzi, 48 hours incubation, compound wash off, further 72 hours without compound, read-out: T. cruzi Wash off IC50 value) of 420 ± 61 nM. The Emax (Trypanosoma cruzi, 48 hours incubation, wash off, further 72 hours without compound, read-out: T. cruzi Wash off relative Emax (in brackets) (converted)) was 99%, the IC50 (Trypanosoma cruzi, 48 hours incubation, read-out: T. cruzi 48 IC50 value) was 40 ± 25 nM and the Emax (Trypanosoma cruzi, 48 hours incubation, read-out: T. cruzi 48 relative Emax (in brackets) (converted)) was 98%.
